Measurements as given in paper PMC11748363, “Antimicrobial and Antiproliferative Properties of 2‐Phenyl‐N‐(Pyridin‐2‐yl)acetamides” (Chemical Biology & Drug Design, 2025).
Read-outs that look alike come from different tables or passages of the source.

Tests used:
[1] = system: Pseudomonas aeruginosa CCM 3955, ATCC 27853; experiment: Antibacterial microdilution broth MIC, PA; type: cell-based
[2] = system: Aspergillus flavus CCM 8363; experiment: Antifungal microdilution broth MIC, AFla
[3] = system: Lichtheimia corymbifera CCM 8077; experiment: Antifungal microdilution broth MIC, LC
[4] = system: Candida tropicalis CCM 8264, ATCC 750; experiment: Antifungal microdilution broth MIC, CT
[5] = system: Candida krusei CCM 8271, ATCC 6258; experiment: Antifungal microdilution broth MIC, CK; conditions: Pichia kudriavzevii
[6] = system: Candida albicans CCM 8320, ATCC 24433; experiment: Antifungal microdilution broth MIC, CA
[7] = system: Trichophyton interdigitale CCM 8377, ATCC 9533; experiment: Antifungal microdilution broth MIC, TI; conditions: Trichophyton interdigitale
[8] = system: HepG2 cell line; experiment: Cytotoxicity CellTiter 96, HepG2; type: cell-based, human; conditions: Homo sapiens, HepG2, 24 h, 24 h incubation; ^c compound precipitated in the testing medium; ^d over the limit of tested concentrations
[9] = system: Mycobacterium tuberculosis H37Ra; experiment: Antimycobacterial microdilution broth MIC (resazurin), Mtb H37Ra; type: cell-based; conditions: for MIC: Mycobacterium tuberculosis, H37RA, read-out: MIC Mtb H37Ra; for SI (selectivity index): SI = HepG2 IC50 (μM)/MIC MtbH37Ra (μM), calculated for compounds with MIC ≤ 31.25 μg/mL
[10] = system: Aspergillus fumigatus ATCC 204305; experiment: Antifungal microdilution broth MIC, AF
[11] = system: Mycolicibacterium smegmatis DSM 43465; experiment: Antimycobacterial microdilution broth MIC (resazurin), M. smegmatis; type: cell-based; conditions: DSM43465, read-out: MIC M. smegmatis
[12] = system: Staphylococcus epidermidis CCM 4418, ATCC 12228; experiment: Antibacterial microdilution broth MIC, SE; type: cell-based
[13] = system: Enterococcus faecalis CCM 4224, ATCC 29212; experiment: Antibacterial microdilution broth MIC, EF; type: cell-based
[14] = system: Candida parapsilosis CCM 8260, ATCC 22019; experiment: Antifungal microdilution broth MIC, CP; conditions: Lodderomyces parapsilosis
[15] = system: Mycolicibacterium aurum DSM 43999; experiment: Antimycobacterial microdilution broth MIC (resazurin), M. aurum; type: cell-based; conditions: DSM43999, read-out: MIC M. aurum
[16] = system: Klebsiella pneumoniae CCM 4415, ATCC 10031; experiment: Antibacterial microdilution broth MIC, KP
[17] = system: Acinetobacter baumannii DSM 30007, ATCC 19606; experiment: Antibacterial microdilution broth MIC, ACI; type: cell-based
[18] = system: Staphylococcus aureus subsp. aureus CCM 4750, ATCC 43300 (MRSA); experiment: Antibacterial microdilution broth MIC, MRSA; type: cell-based
[19] = system: Escherichia coli CCM 3954, ATCC 25922; experiment: Antibacterial microdilution broth MIC, EC; type: cell-based
[20] = system: Staphylococcus aureus CCM 4223, ATCC 29213; experiment: Antibacterial microdilution broth MIC, SA; type: cell-based
[21] = CCM8363, 24 h, read-out: MIC AFla 24h
[22] = CCM8363, 48 h, read-out: MIC AFla 48h
[23] = CCM8077, 24 h, read-out: MIC LC 24h
[24] = CCM8077, 48 h, read-out: MIC LC 48h
[25] = ATCC204305, 24 h, read-out: MIC AF 24h
[26] = ATCC204305, 48 h, read-out: MIC AF 48h
[27] = Staphylococcus aureus, 24 h; read-out: MIC MRSA 24h
[28] = Staphylococcus aureus, 48 h; read-out: MIC MRSA 48h
[29] = Staphylococcus aureus, 24 h; read-out: MIC SA 24h
[30] = Staphylococcus aureus, 48 h; read-out: MIC SA 48h

COc1ccccc1CC(=O)Nc1ccc(Cl)cn1 [Compound 5]
500 µM: MIC ([7]; 72 h, read-out: MIC TI 72h) | MIC ([7]; 120 h, read-out: MIC TI 120h)
> 500 µg/mL: MIC [9] | MIC [11] | MIC [15]
> 1800 µM: MIC ([9]; Calculated from MIC (μg/mL))
> 250 µM: IC50 [8]
> 500 µM: MIC ([1]; 24 h, read-out: MIC PA 24h) | MIC ([1]; 48 h, read-out: MIC PA 48h) | MIC [2, 21] | MIC [2, 22] | MIC [3, 23] | MIC [3, 24] | MIC ([4]; 24 h, read-out: MIC CT 24h) | MIC ([4]; 48 h, read-out: MIC CT 48h) | MIC ([5]; 24 h, read-out: MIC CK 24h) | MIC ([5]; 48 h, read-out: MIC CK 48h) | MIC ([6]; 24 h, read-out: MIC CA 24h) | MIC ([6]; 48 h, read-out: MIC CA 48h) | MIC [10, 25] | MIC [10, 26] | MIC ([12]; 24 h, read-out: MIC SE 24h) | MIC ([12]; 48 h, read-out: MIC SE 48h) | MIC ([13]; 24 h, read-out: MIC EF 24h) | MIC ([13]; 48 h, read-out: MIC EF 48h) | MIC ([14]; 24 h, read-out: MIC CP 24h) | MIC ([14]; 48 h, read-out: MIC CP 48h) | MIC KP 24h [16] | MIC KP 48h [16] | MIC ([17]; 24 h, read-out: MIC ACI 24h) | MIC ([17]; 48 h, read-out: MIC ACI 48h) | MIC [18, 27] | MIC [18, 28] | MIC ([19]; 24 h, read-out: MIC EC 24h) | MIC ([19]; 48 h, read-out: MIC EC 48h) | MIC [20, 29] | MIC [20, 30]

O=C(Cc1ccc(C(F)(F)F)cc1)Nc1ccccn1 [Compound 28]
112 µM: MIC ([9]; Calculated from MIC (μg/mL))
3.7: SI (selectivity index) [9]
> 500 µg/mL: MIC [11] | MIC [15]
31.2 µg/mL: MIC [9]
> 500 µM: MIC ([1]; 24 h, read-out: MIC PA 24h) | MIC ([1]; 48 h, read-out: MIC PA 48h) | MIC [2, 21] | MIC [2, 22] | MIC [3, 23] | MIC [3, 24] | MIC ([4]; 24 h, read-out: MIC CT 24h) | MIC ([4]; 48 h, read-out: MIC CT 48h) | MIC ([5]; 24 h, read-out: MIC CK 24h) | MIC ([5]; 48 h, read-out: MIC CK 48h) | MIC ([6]; 24 h, read-out: MIC CA 24h) | MIC ([6]; 48 h, read-out: MIC CA 48h) | MIC ([7]; 72 h, read-out: MIC TI 72h) | MIC ([7]; 120 h, read-out: MIC TI 120h) | MIC [10, 25] | MIC [10, 26] | MIC ([12]; 24 h, read-out: MIC SE 24h) | MIC ([12]; 48 h, read-out: MIC SE 48h) | MIC ([13]; 24 h, read-out: MIC EF 24h) | MIC ([13]; 48 h, read-out: MIC EF 48h) | MIC ([14]; 24 h, read-out: MIC CP 24h) | MIC ([14]; 48 h, read-out: MIC CP 48h) | MIC KP 24h [16] | MIC KP 48h [16] | MIC ([17]; 24 h, read-out: MIC ACI 24h) | MIC ([17]; 48 h, read-out: MIC ACI 48h) | MIC [18, 27] | MIC [18, 28] | MIC ([19]; 24 h, read-out: MIC EC 24h) | MIC ([19]; 48 h, read-out: MIC EC 48h) | MIC [20, 29] | MIC [20, 30]
408 µM: IC50 [8]

O=C(Cc1ccc(F)cc1)Nc1cccc(Cl)n1 [Compound 33]
213 µM: IC50 [8]
500 µg/mL: MIC [11]
62.5 µM: MIC ([5]; 48 h, read-out: MIC CK 48h)
> 500 µM: MIC ([1]; 24 h, read-out: MIC PA 24h) | MIC ([1]; 48 h, read-out: MIC PA 48h) | MIC [2, 21] | MIC [2, 22] | MIC [3, 23] | MIC [3, 24] | MIC ([4]; 24 h, read-out: MIC CT 24h) | MIC ([4]; 48 h, read-out: MIC CT 48h) | MIC ([6]; 24 h, read-out: MIC CA 24h) | MIC ([6]; 48 h, read-out: MIC CA 48h) | MIC ([7]; 72 h, read-out: MIC TI 72h) | MIC ([7]; 120 h, read-out: MIC TI 120h) | MIC [10, 25] | MIC [10, 26] | MIC ([12]; 24 h, read-out: MIC SE 24h) | MIC ([12]; 48 h, read-out: MIC SE 48h) | MIC ([13]; 24 h, read-out: MIC EF 24h) | MIC ([13]; 48 h, read-out: MIC EF 48h) | MIC ([14]; 24 h, read-out: MIC CP 24h) | MIC ([14]; 48 h, read-out: MIC CP 48h) | MIC KP 24h [16] | MIC KP 48h [16] | MIC ([17]; 24 h, read-out: MIC ACI 24h) | MIC ([17]; 48 h, read-out: MIC ACI 48h) | MIC [18, 27] | MIC [18, 28] | MIC ([19]; 24 h, read-out: MIC EC 24h) | MIC ([19]; 48 h, read-out: MIC EC 48h) | MIC [20, 29] | MIC [20, 30]
3.6: SI (selectivity index) [9]
59 µM: MIC ([9]; Calculated from MIC (μg/mL))
250 µg/mL: MIC [15]
31.2 µM: MIC ([5]; 24 h, read-out: MIC CK 24h)
15.6 µg/mL: MIC [9]

COc1cccc(CC(=O)Nc2ccccn2)c1 [Compound 7, 2-(3-methoxyphenyl)-N-(pyridin-2-yl)acetamide]
516 µM: MIC ([9]; Calculated from MIC (μg/mL))
125 µM: MIC ([20]; Staphylococcus aureus, 24 h, read-out: MIC SA 24h) | MIC ([20]; Staphylococcus aureus, 48 h, read-out: MIC SA 48h)
250 µg/mL: MIC [11] | MIC [15]
> 125 µM: MIC ([1]; 24 h, read-out: MIC PA 24h) | MIC ([1]; 48 h, read-out: MIC PA 48h) | MIC [2, 21] | MIC [2, 22] | MIC [3, 23] | MIC [3, 24] | MIC ([4]; 24 h, read-out: MIC CT 24h) | MIC ([4]; 48 h, read-out: MIC CT 48h) | MIC ([5]; 24 h, read-out: MIC CK 24h) | MIC ([5]; 48 h, read-out: MIC CK 48h) | MIC ([6]; 24 h, read-out: MIC CA 24h) | MIC ([6]; 48 h, read-out: MIC CA 48h) | MIC ([7]; 72 h, read-out: MIC TI 72h) | MIC ([7]; 120 h, read-out: MIC TI 120h) | MIC [10, 25] | MIC [10, 26] | MIC ([12]; 24 h, read-out: MIC SE 24h) | MIC ([12]; 48 h, read-out: MIC SE 48h) | MIC ([13]; 24 h, read-out: MIC EF 24h) | MIC ([13]; 48 h, read-out: MIC EF 48h) | MIC ([14]; 24 h, read-out: MIC CP 24h) | MIC ([14]; 48 h, read-out: MIC CP 48h) | MIC KP 24h [16] | MIC KP 48h [16] | MIC ([17]; 24 h, read-out: MIC ACI 24h) | MIC ([17]; 48 h, read-out: MIC ACI 48h) | MIC ([18]; Staphylococcus aureus, 24 h, read-out: MIC MRSA 24h) | MIC ([18]; Staphylococcus aureus, 48 h, read-out: MIC MRSA 48h) | MIC ([19]; 24 h, read-out: MIC EC 24h) | MIC ([19]; 48 h, read-out: MIC EC 48h)
125 µg/mL: MIC [9]
> 500 µM: IC50 [8]
